Data published in US5573772A, “Methods for protecting tissues and organs from ischemic damage” (priority 1994, dated 1996).

Legend:
heart = details: intercoronarily infused before an ischemic insult; cited from earlier work
intact rabbit = test: Bradycardia and mean arterial pressure in the anesthetized rabbit, Example 2; details: I-APNEA 0.25 mg/kg
[1] = test system: intact, blood perfused rabbit heart; test: Infarct size in the intact anesthetized rabbit, 30 min ischemia and reperfusion, Example 2; details: I-APNEA 0.25 mg/kg iv; control 52±4.3%, PC 9±4.1%
Experimental: In this study, the effect of the adenosine receptor agonist, I-APNEA, on infarct size in the anesthetized rabbit was compared to the protection observed with ischemic preconditioning (PC).
New Zealand White rabbits (1.5-2.5 kg) were anaesthetized with pentobarbital sodium (40 mg/kg) administered via a catheter in a marginal ear vein. The animals were intubated with a pediatric cuffed endotracheal tube and ventilated with room air using a positive pressure respirator (Harvard Apparatus, Natick, Mass.). The heart was exposed in situ via an incision between the left 4th and 5th ribs, and a branch of the left coronary artery was isolated, using a 3-0 silk suture on RB-taper needle, for later ligation to induce 30 minutes of ischemia followed by 180 minutes of reperfusion. A catheter inserted into a femoral vein was used for administration of fluids and drugs. Infarct size was measured using the method described in the section entitled "Measurement of Infarct Size and Risk Area" in Example 1.
All animals received 30 minutes of regional ischemia, induced by tightening the suture placed around the coronary artery. Following the 30 minutes of ischemia, the suture was loosened, and reperfusion was allowed for the ensuing 180 minutes. Control animals received only the 30 minutes of ischemia and 180 minutes of reperfusion (n=9). Ischemic preconditioning (PC) was induced by 5 minutes of occlusion of the coronary artery followed by 10 minutes of reperfusion before the 30 minutes of occlusion (n=7). In a separate group of rabbits, I-APNEA was delivered intravenously as a slow bolus injection (0.25 mg/kg), beginning 15 minutes prior to the 30 minutes occlusion (n=8). In two additional groups of rabbits, the effects of the A1-selective adenosine receptor blocker, DPCPX, were tested against the effects of PC (n=6) and I-APNEA (n=8). […] At the end of 120 minutes of reperfusion, all animals were killed by an overdose of pentobarbital, and risk area and infarct size were measured.

[2] = test system: A3 adenosine receptor (R226); details: cited from earlier work
[3] = test system: human A3 adenosine receptor; test: A3 adenosine receptor binding assay, [125I]-ABA displacement on CHO cell membranes, Example 5
Experimental: Chinese hamster ovary (CHO) cells, obtained from ATCC, expressing the cloned human A3 adenosine receptor [for example, 5 L cells or a mutagenized A3 adenosine receptor (e.g., A3K2)] were grown under standard cell culture conditions and harvested by mechanical agitation in cell culture medium. All further procedures were carried out at 4° C. The cells were disrupted using a Polytron and the resulting cell membranes collected by centrifugation at 50,000 g for 20 minutes. The pellet was suspended in 10 mM Tris-HCl buffer, pH 7.4, (10^6 cells/mL) using the Polytron and centrifuged at 50,000 g for 20 minutes. […]
For the binding assay, 50 μg of membrane protein were incubated with 0.4 nM [^125 l]-aminobenzyladenosine (ABA, custom synthesized by DuPont:NEN; specific activity=2200 Ci/mmol) in 50 mM Tris-HCl buffer, pH 7.4, containing 5 mM MgCl2 and 1 unit/mL adenosine deaminase in a total volume of 100 μL for 2 hours at room temperature. Membranes containing bound radioactivity were collected on Whatman GF/B filters using a Brandel Cell Harvester and washed 3 times with ice-cold 50 mM Tris-HCl buffer, pH 7.4. Radioactivity was quantified using a Beckman gamma counter. […] The specific binding was then calculated by subtracting this non-specific binding value from the total binding.

rabbit heart = test: Infarct size in isolated rabbit hearts, A3-receptor mediation of preconditioning, Example 3; details: BW A1433 200 nM + PC
Experimental: New Zealand white rabbits of either sex, between 1.4-2.4 kg, were anesthetized with intravenous sodium pentobarbital (30 mg/kg). The neck was opened and a tracheotomy was performed. The rabbits were ventilated with 100% oxygen via a positive pressure respirator (MD industries, Mobile, Ala.). Ventilation rate was 30-35 breaths per minute, and tidal volume was approximately 15 ml. A left thoracotomy was performed in the fourth intercostal space and pericardium was opened to expose the heart. A 2-0 silk suture with an RB taper needle was passed around a branch of the left coronary artery, and the end of the silk were threaded through a small vinyl tube to form a snare. The heads were quickly excised and mounted on a Langendorff apparatus and perfused at constant pressure with Krebs buffer containing (in mM) 118.5 NaCl, 4.7 KCl, 1.2 MgSO4, 1.2 K2 PO4, 24.3 NaHCO3, 2.5 CaCl2 and 10 glucose. […] The temperature of the perfusate was maintained at 37° C. The perfusion pressure was kept at 75 mm Hg. Pacing electrodes were placed on the right atrium and all hearts were paced at 200 beats/minute with pulses of 5 volts and 4 msec duration to keep the heart rate constant. A fluid-filled latex balloon connected to a transducer via PE240 tubing was inserted into the left ventricle. Balloon volume was adjusted to set the left ventricular diastolic pressure at 10 mm Hg at the beginning of the experiment. Total coronary artery flow was measured by timed collection of buffer from the chamber into a graduated cylinder. Regional ischemia was effected by pulling the snare tight and clamping the tube with a hemostat. Global ischemia was performed by clamping the inflow tubing of the Langendorff apparatus. Reperfusion was achieved by releasing the restriction. All hearts were allowed to equilibrate for 20 minutes before the experiments were started. Heart rate (HR), coronary flow (CF) and left ventricular developed pressure (LVDP) were recorded at the point just before and at the end of each treatment with the pacing momentarily turned off. […] The hearts were removed from the Langendorff apparatus, weighed and then frozen. The hearts were cut into 2 mm transverse slices. The slices were thawed and incubated in 1% triphenyl tetrazolium chloride (TTC) in pH 7.4 buffer for 20 minutes at 37° C. TTC reacts with NADH and dehydrogenase enzymes and stains all tissue still having them to a deep red color. […] After staining, the area of infarcted tissue (TTC negative tissue) and the risk zone (area lacking fluorescence under ultraviolet light) in each slice were traced. The area of infarct and risk zone were determined by planimetry of the tracing. The volume of infarcted myocardium and myocardium at risk was then calculated by multiplying the planimetered areas by the slice thickness. The methods utilized in this example are identical to those described in Example 1. All hearts received 30 minutes of regional ischemia as described in Example 1. The control group (n=8) hearts received only 30 minutes of ischemia. Preconditioned (PC) hearts (n=10) received 5 minutes of global ischemia and 10 minutes of reperfusion prior to the regional ischemia. Adenosine (ADO) treated hearts (n=6) received 10 μM adenosine for 5 minutes prior to regional ischemia. APNEA treated hearts (n=6) received 65 μM APNEA for 5 minutes prior to regional ischemia. In groups receiving the nonselective adenosine blocker, 8-SPT, the blocker was included in the perfusate for 15 minutes at 100 μM starting 5 minutes before the exposure of ADO (ADO-SPT group, n=6), or APNEA (APNEA-SPT group, n=6 ) or 5 minutes before and after 5 minutes of preconditioning ischemia (PC-SPT group, n=5). […] For the PC-BW group (n=5), the A3-receptor antagonist, BW A1433, [Linden J, et al., Molecular Pharmacology 44:524-532 (1993)], was administered at a dose of 200 nM in the perfusate for 5 minutes before and 5 minutes after PC ischemia.

Q: With C[C@H](Cc1ccccc1)Nc1ncnc2c1ncn2[C@@H]1O[C@H](CO)[C@@H](O)[C@H]1O [R-PIA, (R)-N-(2-phenyl-1-methylethyl)adenosine] as the compound, how does the Ischemic preconditioning effects (heart) read?
A: Its Ischemic preconditioning effects is “beneficial ischemic preconditioning effects”.

Q: What does the source list for Nc1ccc(CCNc2ncnc3c2ncn3[C@@H]2O[C@H](CO)[C@@H](O)[C@H]2O)cc1I [I-APNEA, N^6-2-(4-amino-3-iodophenyl)ethyladenosine]?
A: Mean arterial pressure (intact rabbit): fall in mean arterial pressure; Infarct size [1]: 17±3.8%; Binding to R226 [2]: bind

Q: Which “Binding to R226” value [2] does the source give for CCNC(=O)[C@H]1O[C@@H](n2cnc3c(N)ncnc32)[C@H](O)[C@@H]1O [NECA, 5'-N-ethylcarboxamidoadenosine] here?
A: The value was “bind”.

Q: With Nc1ccc(CNc2ncnc3c2ncn3[C@@H]2O[C@H](CO)[C@@H](O)[C@H]2O)cc1I [I-ABA, N^6-(4-amino-3-iodobenzyl)adenosine] as the compound, how does the IC50 ([3]; A3K2 line cell membranes, 0.4 nM [125I]-ABA, read-out: IC50, displacement of [125I]ABA specific binding) read?
A: Its IC50 is 2 nM.

Q: Which “Binding to R226” value [2] does the source give for CCCn1c(=O)c2[nH]c(-c3ccc(OCC(=O)NCCN)cc3)nc2n(CCC)c1=O [XAC] here?
A: Its value is “not to bind”.

Q: For CCCn1c(=O)c2[nH]c(-c3ccc(/C=C/C(=O)O)cc3)nc2n(CCC)c1=O [BW A1433], which “Infarct size (of the risk area)” value (rabbit heart) is on record?
A: Its value is 26.2±3.2%.

Q: Which Ischemic preconditioning effects (heart) does the source give for OC[C@H]1O[C@@H](n2cnc3c(NC4CCCC4)nc(Cl)nc32)[C@H](O)[C@@H]1O [CCPA, 2-chloro-N^6-cyclopentyladenosine] here?
A: Its Ischemic preconditioning effects is “beneficial ischemic preconditioning effects”.

Q: With Nc1ccc(CNc2ncnc3c2ncn3[C@@H]2O[C@H](CO)[C@@H](O)[C@H]2O)cc1[125I] [[^125 l]ABA, [^125 l]-aminobenzyladenosine] as the compound, how does the “Binding to human A3 receptors, affinity” value ([3]; radiolabel, A3K2 cells) read?
A: Its value is “high affinity”.
